Reference: PubChem BioAssay AID1918995 (Molecular Pharmacology Branch, DTP, NCI, 2023)

Tested on: 324938-238-R-J1-PDC complex spheroid growth, % test/control
Assay: Anticancer human tumor 324938-238-R-J1-PDC patient-derived bladder carcinoma cell line growth inhibition [AhR]
Conditions: for IC50: curve of first compound; for viability, T/C: stronger effect = lower value
Text: Multicellular complex tumor spheroid response to aryl hydrocarbon receptor antagonists in combination with a variety of drugs and investigational agents in selected tumor cell lines
The current study was undertaken to assess response to aryl hydrocarbon receptor antagonists in combination with standard-of-care drugs and investigational agents in solid tumor complex spheroid models. Complex spheroids include a stromal component modeled by human endothelial cells (HUVEC) and fibroblasts modeled by human mesenchymal stem cells (MSCs). The concentration ranges selected for each drug and investigational agent were based upon clinically achievable concentrations if the clinical Cmax of the agent was known.
Compounds. The drugs and investigational agents: BAY 2416964 (NSC825713), GNF351 (NSC835774), CH-223191 (NSC835775), CPI-455 (NSC825282), aza-TdCyd (NSC777586), decitabine (NSC127716), belinostat (NSC758774), entinostat (NSC756642), pevonedistat (NSC761192), tazemetostat (NSC777109), talazoparib (NSC765396), olaparib (NSC753686), selinexor (NSC780203), nedisertib (M3814, NSC802822), bortezomib (NSC756655), venetoclax (NSC766270), doxorubicin (NSC123127), elimusertib (BAY189344, NSC800525), ceralasertib (AZD6738, NSC777638), TAK-243 (NSC785004), alisertib (NSC759677), etoposide (NSC141540), topotecan (NSC609699), eribulin (NSC707389), gemcitabine (NSC613327), carboplatin (NSC241240), cisplatin (NSC119875), and SN-38 (NSC673596) were obtained from the National Cancer Institute (NCI) Developmental Therapeutics Program Chemical Repository (32). The FDA-approved anticancer drug set is available from the Developmental Therapeutics Program at https://dtp.cancer.gov/organization/dscb/obtaining/available plates.htm. […] The stock solutions were prepared in dimethyl sulfoxide (DMSO, Sigma-Aldrich, St. Louis, MO, cat. D2650), except for the platinum compounds which were prepared in saline (Quality Biological, Gaithersburg, MD, cat. 114-055-101), at 800-fold the tested concentration and stored at -70 degrees C prior to their use. All drugs and investigational agents were tested over a range starting from a high concentration at or near the clinical Cmax and decreasing in half-log increments. If the clinical Cmax for an agent had not been determined, the highest concentration tested was 10 microM (Table 1).
Cell Culture. All cells were maintained in an incubator at 37 degrees C and 5% CO2 with 95% humidity. The PDC lines were cultured according to standard operating procedures established by the NCI PDMR (https://pdmr.cancer.gov). Briefly, all PDCs were thawed and cultured in Matrigel-coated flasks prepared with a working solution of 1X Ham's F-12 nutrient mix, without supplementation (Invitrogen, Waltham, MA, cat. 11765054), 100 U/mL penicillin-streptomycin (Invitrogen, cat. 15140122), and 2.5% Matrigel (Corning Inc., Corning, NY, cat. 354248) for the first three passages. All PDCs were cultured in complete DMEM/F-12 media containing advanced DMEM/F-12 (Invitrogen, cat. 12634028), 4.9% defined fetal bovine serum, heat inactivated (HyClone Laboratories Inc., Logan, UT, cat. SH30070.03HI), 389 ng/mL hydrocortisone (Sigma-Aldrich, cat. H4001), 9.7 ng/mL human EGF recombinant protein (Invitrogen, cat. PHG0313), 23.4 microg/mL adenine (Sigma-Aldrich, cat. A2786), 97.3 U/mL penicillin-streptomycin (Invitrogen, cat. 15140122), 1.9 mM L-glutamine (Invitrogen, cat. 25030081), and 9.7 microM Y-27632 dihydrochloride (Tocris Bioscience, Bristol, United Kingdom, cat. 1254). The PDCs were cultured in complete DMEM/F12 media without 10 microM Y-27632 dihydrochloride for at least two passages prior to the screen. The established cell lines NCI-H1341 and […] were cultured in DMEM/F-12, HEPES (Invitrogen, cat. 11330032), 5% defined fetal bovine serum (HyClone Laboratories Inc., cat. SH30070.03), ITS premix universal culture supplement [insulin (5 microg/mL), transferrin (5 microg/mL), and selenious acid (5 ng/mL)] […]

[1] = second compound 0.1 µM, first compound 0.000949 µM
[2] = second compound 0.1 µM, first compound 0.003 µM
[3] = second compound 0.1 µM, first compound 0.00949 µM
[4] = second compound 0.1 µM, first compound 0.03 µM
[5] = second compound 0.1 µM, first compound 0.0949 µM
[6] = second compound 0.1 µM, first compound 0.3 µM
[7] = second compound 0.316 µM, first compound 0.000949 µM
[8] = second compound 0.316 µM, first compound 0.003 µM
[9] = second compound 0.316 µM, first compound 0.00949 µM
[10] = second compound 0.316 µM, first compound 0.03 µM
[11] = second compound 0.316 µM, first compound 0.0949 µM
[12] = second compound 0.316 µM, first compound 0.3 µM
[13] = second compound 1 µM, first compound 0.000949 µM
[14] = second compound 1 µM, first compound 0.003 µM
[15] = second compound 1 µM, first compound 0.00949 µM
[16] = second compound 1 µM, first compound 0.03 µM
[17] = second compound 1 µM, first compound 0.0949 µM
[18] = second compound 1 µM, first compound 0.3 µM
[19] = second compound 3.16 µM, first compound 0.000949 µM
[20] = second compound 3.16 µM, first compound 0.003 µM
[21] = second compound 3.16 µM, first compound 0.00949 µM
[22] = second compound 3.16 µM, first compound 0.03 µM
[23] = second compound 3.16 µM, first compound 0.0949 µM
[24] = second compound 3.16 µM, first compound 0.3 µM
[25] = second compound 10 µM, first compound 0.000949 µM
[26] = second compound 10 µM, first compound 0.003 µM
[27] = second compound 10 µM, first compound 0.00949 µM
[28] = second compound 10 µM, first compound 0.03 µM
[29] = second compound 10 µM, first compound 0.0949 µM
[30] = second compound 10 µM, first compound 0.3 µM
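Further: spheroids exposed to agents for seven days before viability read.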

`COc1cc(Nc2ncc3c(n2)-c2ccc(Cl)cc2C(c2c(F)cccc2OC)=NC3)ccc1C(=O)O` + Cc1cncc(-c2nc(NCCc3c[nH]c4ccccc34)c3ncn(C(C)C)c3n2)c1 showed an IC50 (second compound 0.1 µM) greater than 10000 nM, an IC50 (second compound 0.316 µM) greater than 10000 nM and an IC50 (second compound 1 µM) greater than 10000 nM. For the same compound, the IC50 (second compound 3.16 µM) was greater than 10000 nM, the IC50 (second compound 10 µM) was less than 31.6 nM and the viability, T/C (second compound 0.1 µM, first compound 0.0316 µM) was 116%. It also gave a viability, T/C (second compound 0.1 µM, first compound 0.1 µM) of 130%, a viability, T/C (second compound 0.1 µM, first compound 0.316 µM) of 149% and a viability, T/C (second compound 0.1 µM, first compound 1 µM) of 91.1%. For the same compound, the viability, T/C (second compound 0.1 µM, first compound 3.16 µM) was 127%, the viability, T/C (second compound 0.1 µM, first compound 10 µM) was 108% and the viability, T/C (second compound 0.316 µM, first compound 0.0316 µM) was 91.2%. For the same compound, the viability, T/C (second compound 0.316 µM, first compound 0.1 µM) was 137%, the viability, T/C (second compound 0.316 µM, first compound 0.316 µM) was 104% and the viability, T/C (second compound 0.316 µM, first compound 1 µM) was 87.1%. For the same compound, the viability, T/C (second compound 0.316 µM, first compound 3.16 µM) was 93.4%, the viability, T/C (second compound 0.316 µM, first compound 10 µM) was 65% and the viability, T/C (second compound 1 µM, first compound 0.0316 µM) was 88.9%. For the same compound, the viability, T/C (second compound 1 µM, first compound 0.1 µM) was 127%, the viability, T/C (second compound 1 µM, first compound 0.316 µM) was 98.2% and the viability, T/C (second compound 1 µM, first compound 1 µM) was 107%. For the same compound, the viability, T/C (second compound 1 µM, first compound 3.16 µM) was 76%, the viability, T/C (second compound 1 µM, first compound 10 µM) was 80.4% and the viability, T/C (second compound 3.16 µM, first compound 0.0316 µM) was 97.5%. It also gave a viability, T/C (second compound 3.16 µM, first compound 0.1 µM) of 131%, a viability, T/C (second compound 3.16 µM, first compound 0.316 µM) of 121% and a viability, T/C (second compound 3.16 µM, first compound 1 µM) of 96.2%. The viability, T/C (second compound 3.16 µM, first compound 3.16 µM) was 82.7%, the viability, T/C (second compound 3.16 µM, first compound 10 µM) was 84.5% and the viability, T/C (second compound 10 µM, first compound 0.0316 µM) was 17.1%. The viability, T/C (second compound 10 µM, first compound 0.1 µM) was 14.8%, the viability, T/C (second compound 10 µM, first compound 0.316 µM) was 18.8% and the viability, T/C (second compound 10 µM, first compound 1 µM) was 15%. The viability, T/C (second compound 10 µM, first compound 3.16 µM) was 19.1% and the viability, T/C (second compound 10 µM, first compound 10 µM) was 25.6%.

`Nc1ncn(C2CC(O)C(CO)S2)c(=O)n1` (stereo not given) + Cc1cncc(-c2nc(NCCc3c[nH]c4ccccc34)c3ncn(C(C)C)c3n2)c1 gave an IC50 (second compound 0.1 µM) greater than 300 nM, an IC50 (second compound 0.316 µM) greater than 300 nM and an IC50 (second compound 1 µM) greater than 300 nM. For the same compound, the IC50 (second compound 3.16 µM) was greater than 300 nM, the IC50 (second compound 10 µM) was less than 0.949 nM and the viability, T/C [1] was 122%. It also gave a viability, T/C [2] of 113%, a viability, T/C [3] of 122% and a viability, T/C [4] of 95.6%. It also gave a viability, T/C [5] of 118%, a viability, T/C [6] of 126% and a viability, T/C [7] of 113%. For the same compound, the viability, T/C [8] was 102%, the viability, T/C [9] was 114% and the viability, T/C [10] was 99%. It also gave a viability, T/C [11] of 129%, a viability, T/C [12] of 130% and a viability, T/C [13] of 92.1%. It also gave a viability, T/C [14] of 134%, a viability, T/C [15] of 103% and a viability, T/C [16] of 111%. For the same compound, the viability, T/C [17] was 131%, the viability, T/C [18] was 126% and the viability, T/C [19] was 113%. It also gave a viability, T/C [20] of 99.5%, a viability, T/C [21] of 130% and a viability, T/C [22] of 98.2%. The viability, T/C [23] was 94.9%, the viability, T/C [24] was 120% and the viability, T/C [25] was 12.2%. It also gave a viability, T/C [26] of 16.9%, a viability, T/C [27] of 9.06% and a viability, T/C [28] of 13.4%. The viability, T/C [29] was 11.2% and the viability, T/C [30] was 10.7%.

With `CCc1c2c(nc3ccc(O)cc13)-c1cc3c(c(=O)n1C2)COC(=O)[C@]3(O)CC` + CC(CO)NC(=O)c1cc(-c2ccc(Cl)cc2)nn(-c2cnn(C)c2)c1=O the IC50 (second compound 0.1 µM) was less than 0.949 nM, the IC50 (second compound 0.316 µM) was less than 0.949 nM and the IC50 (second compound 1 µM) was less than 0.949 nM. The IC50 (second compound 3.16 µM) was less than 0.949 nM, the IC50 (second compound 10 µM) was less than 0.949 nM and the viability, T/C [1] was 41.3%. It also gave a viability, T/C [2] of 28.7%, a viability, T/C [3] of 15.3% and a viability, T/C [4] of 17.3%. For the same compound, the viability, T/C [5] was 17.4%, the viability, T/C [6] was 15.9% and the viability, T/C [7] was 37.5%. It also gave a viability, T/C [8] of 31%, a viability, T/C [9] of 17.1% and a viability, T/C [10] of 16.9%. It also gave a viability, T/C [11] of 15.8%, a viability, T/C [12] of 18.6% and a viability, T/C [13] of 43.3%. The viability, T/C [14] was 29%, the viability, T/C [15] was 19.6% and the viability, T/C [16] was 15.5%. It also gave a viability, T/C [17] of 16.1%, a viability, T/C [18] of 15.3% and a viability, T/C [19] of 34%. The viability, T/C [20] was 28.9%, the viability, T/C [21] was 18.9% and the viability, T/C [22] was 14.5%. For the same compound, the viability, T/C [23] was 14.6%, the viability, T/C [24] was 13.8% and the viability, T/C [25] was 36.3%. For the same compound, the viability, T/C [26] was 31.8%, the viability, T/C [27] was 24.4% and the viability, T/C [28] was 17.1%. The viability, T/C [29] was 18.6% and the viability, T/C [30] was 17%.
